Results from PMC11876671, “Investigating blood–brain barrier penetration and neurotoxicity of natural products for central nervous system drug development” (Scientific Reports, 2025).
Structures can show the parent of a compound that is named as a salt.

assay: in vitro; details: PAMPA, PAMPA-BBB Pe(10^-6 cm/sec)

| SMILES | Papp [×10⁻⁶ cm/s] |
| --- | --- |
| CC(=O)O[C@@]12CO[C@@H]1C[C@H](O)[C@@]1(C)C(=O)[C@H](O)C3=C(C)[C@@H](O)C[C@@](O)([C@@H](OC(=O)c4ccccc4)[C@H]21)C3(C)C [10-DEACETYL BACCATIN III] | < 1 |
| CNc1ccccc1C(=O)O | 1.5 |
| CC1=C(/C=C/C(C)=C/C=C/C(C)=C\C(=O)O)C(C)(C)CCC1 [ISOTRETINOIN] | 8.7 |

same assay, conditions: PAMPA, PAMPA-BBB Pe(10^-6 cm/sec), Table S3: compounds exhibiting low PAMPA-BBB permeability

| SMILES | Papp [×10⁻⁶ cm/s] |
| --- | --- |
| COc1cc(C[C@@H](CO)[C@H](CO)Cc2ccc(O)c(OC)c2)ccc1O [SECOISOLARICIRESINOL] | < 1 |
| O=c1cc(-c2ccc(O)c(O)c2)oc2cc(O)cc(O)c12 [LUTEOLIN] | 2.2 |
| NCCCS(=O)(=O)O [TR[…]] | 1.7 |
| O=C(O)c1cc(O)c(O)c(O)c1 [GALLIC ACID] | < 1 |
| CC(C)=CCC/C(C)=C/COc1c2ccoc2cc2oc(=O)ccc12 [BERGAMOTTIN] | 5.8 |
| Nc1ncnc2c1ncn2[C@@H]1O[C@H](CO)C[C@H]1O [CORDYCEPIN] | < 1 |
| CC1=C(/C=C/C(C)=C/C=C/C(C)=C/C=C/C=C(C)/C=C/C=C(C)/C=C/C2=C(C)C[C@@H](O)CC2(C)C)C(C)(C)C[C@H](O)C1 [ZEAXANTHIN] | 2.1 |
| COc1ccc2cc1Oc1ccc(cc1)C[C@H]1c3cc(c(OC)cc3CCN1C)Oc1c(OC)c(OC)c(OC)c3c1[C@H](C2)N(C)CC3 [HERNANDEZINE] | 9.7 |
| C[C@H]1O[C@H](O[C@H]2[C@H](O)[C@@H](O)[C@@H](O)[C@H](O)[C@@H]2O)[C@@H](N)C[C@@H]1NC(=N)C(=O)O [KASUGAMYCIN HYDROCHLORIDE] | < 1 |
| O=C(O)CCCc1c[nH]c2ccccc12 [IND[…]] | < 1 |
| O=C(/C=C/c1ccc(O)c(O)c1)O[C@@H]1C[C@@](OC(=O)/C=C/c2ccc(O)c(O)c2)(C(=O)O)C[C@@H](O)[C@@H]1O [CYNARINE] | < 1 |
| COc1cc2c(cc1O)C[C@@H]1NCCc3cc(OC)c(OC)c-2c31 [LAUROTETANINE] | < 1 |
| Cc1cc(O)cc(O)c1C(=O)O [[…]] | < 1 |
| C[C@@H]1CC[C@@]2(OC1)O[C@H]1C[C@H]3[C@@H]4CC[C@H]5C[C@@H](O)CC[C@]5(C)[C@H]4CC(=O)[C@]3(C)[C@H]1[C@@H]2C [HECOGENIN] | < 1 |
| COc1ccc2c(c1OC)CN1CCc3cc4c(cc3[C@@H]1C2)OCO4 [CANADINE] | 5.5 |
| CSCCCN=C=S [IBERVERIN] | 9.7 |
| O=C1/C(=C\c2ccc(O)c(O)c2)Oc2c1ccc(O[C@@H]1O[C@H](CO)[C@@H](O)[C@H](O)[C@H]1O)c2O [[…]] | 1 |
| Cn1c(=O)[nH]c2ncn(C)c2c1=O [PARAXANTHINE] | < 1 |
| CC=C1C[N+]2(C)CC[C@@]34C(=C(C=O)[C@H]1C[C@@H]32)Nc1ccccc14 (some centres unmarked) [METVINE] | < 1 |
| CC1=C(/C=C/C(C)=C/C=C/C(C)=C/C=C/C=C(C)/C=C/C=C(C)/C=C/C2=C(C)CCCC2(C)C)C(C)(C)CCC1 [BETA CAROTENE] | 9.2 |
| COC(=O)/C=C/C(C)=C/C=C/C(C)=C/C=C/C=C(C)/C=C/C=C(C)/C=C/C(=O)O [ISOBIXIN] | 4.2 |
| O=c1c(O)c(-c2ccc(O)c(O)c2)oc2cc(O)cc(O)c12 [QUERCETIN] | < 1 |
| O=C(/C=C/c1ccc(O)cc1)OC[C@H]1O[C@@H](Oc2c(-c3ccc(O)cc3)oc3cc(O)cc(O)c3c2=O)[C@H](O)[C@@H](O)[C@@H]1O [TILIROSIDE] | < 1 |
| CNCC(O)c1ccc(O)c(OC)c1 (centres unmarked) [METANEPHRINE HYDROCHLORIDE] | < 1 |
| COc1cccc2c1cc([N+](=O)[O-])c1c(C(=O)O)cc3c(c12)OCO3 [ARISTOLOCHIC ACID] | < 1 |

| SMILES | Papp [×10⁻⁶ cm/s] |
| --- | --- |
| O=C1C[C@@H](c2ccc(O[C@@H]3O[C@H](CO)[C@@H](O)[C@H](O)[C@H]3O)cc2)Oc2cc(O)ccc21 [LIQUIRITIN] | < 1 |
| Nc1nc2c(ncn2[C@@H]2O[C@H](CO)[C@@H](O)[C@@H]2O)c(=O)[nH]1 [ARAGUANOSINE] | < 1 |
| OC[C@H]1O[C@@H](Oc2cc(O)cc(/C=C/c3ccc(O)cc3)c2)[C@H](O)[C@@H](O)[C@@H]1O [POLYDATIN] | < 1 |
| COc1ccc2[nH]c3c(c2c1)CCNC3 [Pinoline] | 2.5 |
| O=C(O)c1ccco1 [2-FURANOIC ACID] | < 1 |
| Cc1ncc(CO)c(CO)c1O [[…]] | < 1 |
| CC[C@H]1O[C@]2(CC[C@@H]1C)C[C@@H]1C[C@@H](CC=C(C)C[C@@H](C)C=CC=C3CO[C@@H]4[C@H](O)C(C)=C[C@@H](C(=O)O1)[C@]34O)O2 [MILBEMYCIN A4] | 9.9 |
| COC1=C[C@@H]2[C@@H]3Cc4ccc(OC)c(O)c4[C@]2(CCN3C)CC1=O [SINOMENINE] | 2.2 |
| CC(C)=CCC/C(C)=C/C=C/C(C)=C/C=C/C(C)=C/C=C/C=C(C)/C=C/C=C(C)/C=C/C=C(\C)CCC=C(C)C [LYCOPENE] | < 1 |
| CCCCc1ccc(C(=O)O)nc1 [FUSARIC ACID] | < 1 |
| O=C(O)/C=C/C=C/c1ccc2c(c1)OCO2 [PIPERIC ACID] | < 1 |
| O=c1cc(-c2ccc(O)cc2)oc2c([C@@H]3O[C@H](CO)[C@@H](O)[C@H](O)[C@H]3O)c(O)cc(O)c12 [VITEXIN] | < 1 |
| COc1ccc2cc1Oc1ccc(cc1)C[C@H]1c3c(cc4c(c3Oc3cc5c(cc3OC)CCN(C)[C@@H]5C2)OCO4)CCN1C [CEPHARANTHINE] | < 1 |
| CC/C=C\C/C=C\C/C=C\C/C=C\C/C=C\CCCC(=O)OCC [ICOSAPENT ETHYL] | < 1 |
| COc1ccc([C@@H]2CC(=O)c3c(O)cc(O[C@@H]4O[C@H](CO)[C@@H](O)[C@H](O)[C@H]4O[C@@H]4O[C@@H](C)[C@H](O)[C@@H](O)[C@H]4O)cc3O2)cc1O [NEOHESPERIDIN] | < 1 |
| C=C1CC[C@H](O)C/C1=C/C=C1\CCC[C@]2(C)[C@@H]([C@H](C)/C=C/[C@H](C)C(C)C)CC[C@@H]12 [ERGOCALCIFEROL] | < 1 |
| Cc1cc(=O)oc2cc(O)ccc12 [HYMECROMONE] | 9.9 |
| O=C1O/C(=C\c2ccc(O)cc2)C(O)=C1c1ccc(O)cc1 [[…] B1] | < 1 |
| COc1ccc2[nH]cc(CC(=O)O)c2c1 [5-METHOXYIN[…]] | < 1 |
| CO[C@H]1[C@@H](O)[C@@H](C)O[C@H](O[C@H]2[C@H](Oc3cccc4c(O)c5c(=O)oc6ccc(C)c7c(=O)oc(c34)c5c67)O[C@H](C)[C@H](O)[C@@H]2O)[C@@H]1O [CHARTREUSIN] | 4 |
| C=CC(C)=CCC=C(C)C [CIS BETA OCIMENE] | 3.9 |
| NC(=O)c1ncn([C@@H]2O[C@H](CO)[C@@H](O)[C@H]2O)c1N [ACADESINE] | < 1 |
| COc1cc(-c2coc3cc(O[C@@H]4O[C@H](CO)[C@@H](O)[C@H](O)[C@H]4O)c(OC)c(O)c3c2=O)cc(O)c1OC [IRIDIN] | 1.3 |
| COc1cc(-c2[o+]c3cc(O)cc(O)c3cc2O)cc(OC)c1O [MALVIDIN] | 1 |

same assay, conditions: PAMPA, PAMPA-BBB Pe, Table S2: compounds exhibiting moderate to high PAMPA-BBB permeability

| SMILES | Papp [×10⁻⁶ cm/s] |
| --- | --- |
| COc1ccc(-c2cc(=O)c3c(OC)c(OC)c(OC)cc3o2)cc1OC [SINENSETIN] | 36 |
| CC(=O)c1c(O)cccc1O [2-ACETYLRESORCINOL] | 45 |
| O=C(/C=C/c1ccccc1)NCCO [IDROCILAMIDE] | 211 |
| CCOC(=O)c1ccc(O)cc1 [ETHYL HYDROXYBENZOATE] | 43 |
| COc1ccc(-c2cc(=O)c3c(O)cc(O)c(-c4cc(-c5cc(=O)c6c(O)cc(OC)cc6o5)ccc4OC)c3o2)cc1 [SCIADOPITYSIN] | 20 |
| COc1ccc(C(=O)O[C@H]2CC[C@@]3(C)[C@@H]4CC[C@H]5[C@]6(O)C[C@H](O)[C@@]7(O)[C@@H](CN8C[C@@H](C)CC[C@H]8[C@@]7(C)O)[C@]6(O)C[C@@]53O[C@]24O)cc1OC [VERATRIDINE] | 17 |
| COc1cc(OC)c2ccc(=O)oc2c1 [LIMETTIN] | 105 |
| CC1=CC(=O)C2=C(C)CC[C@@H]3[C@H](OC(=O)[C@H]3C)[C@@H]12 [LEUKOMISIN] | 57 |
| C/C=C(\C)C(=O)O[C@@H]1c2c(ccc3ccc(=O)oc23)OC(C)(C)[C@@H]1OC(C)=O [PTERYXINE] | 205 |
| CC(=O)[C@@]1(O)CC[C@H]2[C@@H]3CCC4=CC(=O)CC[C@]4(C)[C@H]3CC[C@@]21C [HYDROXYPROGESTERONE] | 110 |
| OCc1c[nH]c2ccccc12 [INDOLE-3-CARBINOL] | 94 |
| COc1cc(O)c(C(C)=O)c(OC)c1 [XANTHOXYLINE] | 149 |
| COc1ccc(-c2cnc(-c3cccnc3)o2)cc1 [O-[…]] | 262 |
| COC(=O)C1=CO[C@@H](C)[C@@H]2CN3CC[C@@]4(C(=O)Nc5ccccc54)[C@@H]3CC12 (some centres unmarked) [MITRAPHYLLINE] | 117 |
| COC1=CC(=O)O[C@@H](/C=C/c2ccccc2)C1 [KAWAIN] | 114 |
| CC(=O)/C=C/C1C(C)=CCC(C)C1(C)C (mixture of isomers) [DL-TRANS-.ALPHA.-IRONE] | 34 |
| CCN1C[C@@]2(COC)CCC(OC)[C@@]34[C@@H]1C([C@H](OC)[C@H]23)[C@@]1(OC(C)=O)C[C@H](OC)[C@@]2(O)C[C@H]4C1[C@H]2OC(=O)c1ccc(OC)cc1 (some centres unmarked) [BULLE[…]] | 17 |
| C=C[C@H]1C[N@@]2CC[C@H]1C[C@@H]2[C@@H](O)c1ccnc2ccccc12 [CINCHONINE] | 22 |
| O=c1c(O)c(-c2ccccc2)oc2ccccc12 [FLAVONOL] | 181 |
